Results from patent publication US6605595B1, “Avermectin derivatives” (The Kitasato Institute, priority 1999, dated 2003).

Assays:
[1] = tested on: Adult Musca domestica of WHO(N) species; test: Filter test on flies (Musca domestica), ingestion/contact method; type: in vivo; settings: time of reading not stated (1, 3, 5 and 24 hours)
Protocol: Filter test on flies (Musca domestica)—ingestion/contact method
Test animals: Adult Musca domestica of WHO(N) species
In order to prepare a suitable formulation a solution of active compound is prepared froom 20 mg of active compound and 1 ml of DMSO. The active compound solution is diluted with water to the concentration required in each case.
2 ml of this preparation of active compound are pipetted onto filter paper discs (of a diameter of 9.5 cm) contained in Petri dishes of the appropriate size. After drying the filter discs, 100 μl of the active compound formulation and 400 μl of a sugar solution are poured onto a block of household sponge cloth measuring 1 cm^2 and placed in a blister well on the filter disc. 25 CO2-intoxicated test animals are transferred to the Petri dishes and covered.
After 1, 3, 5 and 24 hours the activity of the active compound preparation is determined. 100% means that all of the flies have been destroyed; 0% means that none of the flies have been destroyed.

[2] = tested on: Nematospiroides dubius; test: In vivo experiments with Nematospiroides dubius in mice; set-up: key: 3 represents cure (no parasites detectable); 2 effective (<20% of parasites remaining); 1 trace effect (< of parasites remaining); 0 ineffective (>50% of parasites remaining); settings: orally 4 times, mice infected with N. dubius larvae
[3] = tested on: Adult Ctenocephalides felis; test: Test on cat fleas / oral absorption; type: in vivo; settings: after 24 hours
Protocol: Test on cat fleas/oral absorption
Test animals: Adult Ctenocephalides felis
Solvent: Dimethylsulfoxide (DMSO)
20 μl of this formulation are added to 4 ml of citrated cow's blood and stirred.
20 starved adult fleas (of “Georgi” species of Ctenocephalides felis) are introduced into a chamber (of a diameter of 5 cm) which is sealed with gauze at the top and bottom. A metal cylinder, whose base is sealed with parafilm, is placed on the chamber. […] Whereas the blood is heated to 37° C. a temperature of 25° C. is adjusted in the region of the flea chambers. Controls are mixed with the same volume of DMSO without the addition of any of the compounds. The test are repeated three times.
After 24 hours the mortality is determined in %.

| SMILES | activity (100% = all of the flies destroyed) ([1]; 10 ppm) [%] | activity (100% = all of the flies destroyed) ([1]; 100 ppm) [%] | anthelmintic activity score (scale 0-3) ([2]; 0.5 mg/kg) | anthelmintic activity score (scale 0-3) ([2]; 1 mg/kg) | mortality of fleas ([3]; 10 ppm in citrated cow's blood) [%] | mortality of fleas ([3]; 100 ppm in citrated cow's blood) [%] |
| --- | --- | --- | --- | --- | --- | --- |
| CCC(C)C1OC2(C=CC1C)CC1CC(CC=C(C)C(OC3CC(OC)C(OC4CC(OC)C(=CCNOC)C(C)O4)C(C)O3)C(C)C=CC=C3COC4C(O)C(C)=CC(C(=O)O1)C34O)O2 (stereo not drawn) [Compound 69] | 50 | 100 |  |  |  |  |
| CCC(C)C1OC2(C=CC1C)CC1CC(CC=C(C)C(OC3CC(OC)C(OC4CC(OC)C(=CC(=O)O)C(C)O4)C(C)O3)C(C)C=CC=C3COC4C(=NO)C(C)=CC(C(=O)O1)C34O)O2 (stereo not drawn) [Compound 58] |  |  | 3 | 3 | 73 | 100 |
